This note sets out measurements from ChEMBL document CHEMBL1201862, “PubChem BioAssay data set” (2004).

Molecules are shown by their SMILES. Activity calls are given as the source filed them. A value given as a limit tells only on which side of the number the result lay.

Common to all, as to type: functional
Test [1] deals with T1, Serine/threonine-protein kinase PLK4 (Homo sapiens, UniProt O00444).
T1 sequence (O00444 whole entry): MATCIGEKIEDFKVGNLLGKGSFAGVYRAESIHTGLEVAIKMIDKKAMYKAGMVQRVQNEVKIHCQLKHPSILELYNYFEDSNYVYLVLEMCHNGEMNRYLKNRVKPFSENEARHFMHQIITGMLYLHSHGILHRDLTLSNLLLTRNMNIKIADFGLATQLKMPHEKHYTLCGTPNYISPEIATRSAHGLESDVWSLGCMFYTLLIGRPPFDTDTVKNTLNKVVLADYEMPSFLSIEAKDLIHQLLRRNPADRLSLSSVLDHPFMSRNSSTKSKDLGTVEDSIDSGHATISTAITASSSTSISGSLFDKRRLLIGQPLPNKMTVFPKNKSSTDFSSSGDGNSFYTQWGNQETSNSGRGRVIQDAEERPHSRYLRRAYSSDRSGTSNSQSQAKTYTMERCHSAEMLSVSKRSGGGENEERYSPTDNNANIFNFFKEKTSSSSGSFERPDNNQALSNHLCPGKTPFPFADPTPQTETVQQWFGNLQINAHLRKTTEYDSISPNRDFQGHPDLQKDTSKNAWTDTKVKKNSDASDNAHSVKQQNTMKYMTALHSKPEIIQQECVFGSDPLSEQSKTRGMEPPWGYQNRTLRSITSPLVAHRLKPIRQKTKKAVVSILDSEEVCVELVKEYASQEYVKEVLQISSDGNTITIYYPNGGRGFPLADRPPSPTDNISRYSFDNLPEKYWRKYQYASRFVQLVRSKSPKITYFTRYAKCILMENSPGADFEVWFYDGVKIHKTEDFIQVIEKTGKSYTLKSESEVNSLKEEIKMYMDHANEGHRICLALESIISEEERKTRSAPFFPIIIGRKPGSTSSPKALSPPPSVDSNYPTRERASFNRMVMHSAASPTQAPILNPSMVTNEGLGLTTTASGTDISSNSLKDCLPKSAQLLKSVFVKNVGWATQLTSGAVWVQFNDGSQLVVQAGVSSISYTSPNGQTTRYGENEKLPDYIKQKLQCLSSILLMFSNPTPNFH

Test [2] deals with T2, Tyrosine-protein kinase receptor TYRO3 (Homo sapiens, UniProt Q06418).
T2 sequence (Q06418 whole entry): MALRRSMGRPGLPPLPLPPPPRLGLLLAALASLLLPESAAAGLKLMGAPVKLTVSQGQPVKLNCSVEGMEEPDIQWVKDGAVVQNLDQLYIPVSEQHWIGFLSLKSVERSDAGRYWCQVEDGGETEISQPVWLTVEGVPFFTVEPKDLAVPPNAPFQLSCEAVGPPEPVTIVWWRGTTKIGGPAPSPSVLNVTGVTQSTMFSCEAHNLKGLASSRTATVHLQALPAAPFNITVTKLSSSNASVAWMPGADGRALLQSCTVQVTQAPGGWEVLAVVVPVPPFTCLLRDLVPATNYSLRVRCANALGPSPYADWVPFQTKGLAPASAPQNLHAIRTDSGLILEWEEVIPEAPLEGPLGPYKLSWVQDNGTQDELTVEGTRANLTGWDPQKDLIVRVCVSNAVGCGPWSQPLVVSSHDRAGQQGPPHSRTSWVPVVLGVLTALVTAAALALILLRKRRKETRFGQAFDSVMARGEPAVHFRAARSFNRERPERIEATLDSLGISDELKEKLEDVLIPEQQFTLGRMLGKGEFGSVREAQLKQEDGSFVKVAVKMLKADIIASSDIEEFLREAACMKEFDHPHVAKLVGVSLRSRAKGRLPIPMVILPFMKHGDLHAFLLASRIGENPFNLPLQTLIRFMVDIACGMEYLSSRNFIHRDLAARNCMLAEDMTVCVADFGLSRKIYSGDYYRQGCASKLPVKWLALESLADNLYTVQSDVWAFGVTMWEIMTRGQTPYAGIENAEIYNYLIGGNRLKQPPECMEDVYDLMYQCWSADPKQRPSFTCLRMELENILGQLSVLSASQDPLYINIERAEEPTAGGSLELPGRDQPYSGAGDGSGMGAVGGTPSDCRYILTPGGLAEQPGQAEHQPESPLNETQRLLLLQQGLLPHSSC

The target of test [3] is T3, Tyrosine-protein kinase ITK/TSK (Homo sapiens, UniProt Q08881).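 Note: affinity for ITK measured as one member of a broad kinase panel profiling binding across the kinome.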
T3 sequence (Q08881 whole entry): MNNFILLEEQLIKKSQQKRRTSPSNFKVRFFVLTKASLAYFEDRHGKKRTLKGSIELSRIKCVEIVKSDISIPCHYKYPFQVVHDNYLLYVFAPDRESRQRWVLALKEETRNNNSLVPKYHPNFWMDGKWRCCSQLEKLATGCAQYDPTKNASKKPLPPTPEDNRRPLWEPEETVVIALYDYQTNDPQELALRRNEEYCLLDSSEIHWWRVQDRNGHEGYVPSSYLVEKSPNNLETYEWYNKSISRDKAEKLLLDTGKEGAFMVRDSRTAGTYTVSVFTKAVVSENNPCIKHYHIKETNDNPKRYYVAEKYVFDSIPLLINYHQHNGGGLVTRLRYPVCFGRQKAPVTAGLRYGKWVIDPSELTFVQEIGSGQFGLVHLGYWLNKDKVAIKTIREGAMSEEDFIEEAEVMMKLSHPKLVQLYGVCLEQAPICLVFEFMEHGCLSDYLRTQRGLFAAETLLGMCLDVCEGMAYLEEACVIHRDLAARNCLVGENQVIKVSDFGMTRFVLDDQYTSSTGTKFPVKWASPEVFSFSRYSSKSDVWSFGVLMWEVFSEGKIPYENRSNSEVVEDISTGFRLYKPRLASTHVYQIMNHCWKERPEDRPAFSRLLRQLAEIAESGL

Test [4] deals with MAP/microtubule affinity-regulating kinase 3 (Homo sapiens, UniProt P27448).
MAP/microtubule affinity-regulating kinase 3, sequence (P27448 whole entry): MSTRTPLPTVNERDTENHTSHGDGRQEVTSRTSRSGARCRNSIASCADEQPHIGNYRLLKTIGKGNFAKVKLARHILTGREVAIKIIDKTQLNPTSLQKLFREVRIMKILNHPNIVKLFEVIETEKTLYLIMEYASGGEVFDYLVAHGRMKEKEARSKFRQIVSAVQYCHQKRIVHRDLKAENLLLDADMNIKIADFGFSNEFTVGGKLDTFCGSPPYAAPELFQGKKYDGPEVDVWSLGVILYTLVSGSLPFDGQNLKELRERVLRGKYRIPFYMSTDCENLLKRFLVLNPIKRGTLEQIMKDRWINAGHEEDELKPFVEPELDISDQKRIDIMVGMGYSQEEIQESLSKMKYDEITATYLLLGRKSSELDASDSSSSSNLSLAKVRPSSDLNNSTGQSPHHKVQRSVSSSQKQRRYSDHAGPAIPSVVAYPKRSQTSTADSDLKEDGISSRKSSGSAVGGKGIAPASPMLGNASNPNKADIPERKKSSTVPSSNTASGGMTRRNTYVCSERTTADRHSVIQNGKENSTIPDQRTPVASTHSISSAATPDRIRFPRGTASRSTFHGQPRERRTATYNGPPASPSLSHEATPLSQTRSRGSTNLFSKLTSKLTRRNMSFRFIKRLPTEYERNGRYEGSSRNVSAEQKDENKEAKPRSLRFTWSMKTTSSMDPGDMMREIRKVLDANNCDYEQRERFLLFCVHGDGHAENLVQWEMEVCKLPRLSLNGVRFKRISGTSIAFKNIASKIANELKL
For test [5], the target named is cAMP-dependent protein kinase catalytic subunit alpha (Homo sapiens, UniProt P17612).

The term Ki denotes the equilibrium dissociation constant of an inhibitor or competing ligand from its target. For orientation: pKi means −log10 of the Ki, conventionally taken in molar units. A lower pKi goes with a large Ki. Regarding `NC(=O)c1cc(-c2ccnc(N)n2)[nH]c1-c1ccc(Cl)cc1Cl`, the inhibition constant Ki in test [1] was 501 nM (active); in test [2], > 2 µM (inactive); in test [3] it was > 1.58 µM (inactive); in test [4], 501 nM (active); in test [5], 398 nM (active). The negative-log Ki (pKi) came to 6.3 in test [1], 6.3 in test [4] and 6.4 in test [5].

Take `Cc1ccc(-n2nc(C(C)(C)C)cc2NC(=O)Nc2ccc(OCCN3CCOCC3)c3ccccc23)cc1` [DORAMAPIMOD]: the Ki was > 3980 nM (inactive) in test [1]; 2 µM (active) in test [2]; > 1.58 µM (inactive) in test [3]; > 5010 nM (inactive) in test [4]; > 2000 nM (inactive) in test [5].

As for `NC(COc1cncc(-c2ccc3c(c2)C(=Cc2ccco2)C(=O)N3)c1)Cc1c[nH]c2ccccc12` (stereo not drawn), the Ki in test [1] is 200 nM (active); in test [2], > 2 µM (inactive); in test [3] it was 1.26 µM (active); in test [4], 39.8 nM (active); in test [5], 12.6 nM (active).
